The source of these data is US9266908B2, “Inhibitors of arginase and their therapeutic applications” (MARS, INCORPORATED, priority 2011, dated 2016).

In general, IC50 refers to the concentration needed to halve the response being measured. Low readings indicate inhibition by little substance, high ones a need for much substance.

One assay addresses T1, arginase II (ARG II) (Homo sapiens, UniProt P78540).
T1 sequence (P78540 23-354): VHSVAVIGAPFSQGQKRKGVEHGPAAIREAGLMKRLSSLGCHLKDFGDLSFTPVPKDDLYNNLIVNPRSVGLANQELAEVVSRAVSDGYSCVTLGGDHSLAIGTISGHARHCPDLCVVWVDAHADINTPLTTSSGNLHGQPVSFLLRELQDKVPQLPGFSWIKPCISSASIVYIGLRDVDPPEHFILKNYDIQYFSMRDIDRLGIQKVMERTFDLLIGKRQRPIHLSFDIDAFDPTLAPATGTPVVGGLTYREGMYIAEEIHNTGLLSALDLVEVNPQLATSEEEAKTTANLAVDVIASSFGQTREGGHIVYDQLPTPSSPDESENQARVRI
The assay can be described thus: Inhibition of arginase II, spectrophotometric urea assay at 530 nm.

A further assay concerns the target T2, human arginase I (ARG I) (Homo sapiens, UniProt P05089).
T2 sequence (P05089 1-322): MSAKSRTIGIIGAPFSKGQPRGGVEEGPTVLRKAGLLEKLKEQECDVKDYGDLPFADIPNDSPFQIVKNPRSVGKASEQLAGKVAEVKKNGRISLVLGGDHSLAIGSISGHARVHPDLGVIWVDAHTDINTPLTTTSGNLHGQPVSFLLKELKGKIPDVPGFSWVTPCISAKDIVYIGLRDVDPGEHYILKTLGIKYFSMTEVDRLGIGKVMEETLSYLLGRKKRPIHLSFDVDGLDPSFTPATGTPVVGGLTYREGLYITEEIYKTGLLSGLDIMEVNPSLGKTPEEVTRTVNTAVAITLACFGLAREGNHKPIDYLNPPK
Kind of assay: Inhibition of arginase I, spectrophotometric urea assay at 530 nm.

Some results are limits rather than exact numbers.

Method for arginase II (ARG II): (§1) Inhibition of arginase I (ARG I) and arginase II (ARG II) by the inventive compounds is followed spectrophotometrically at 530 nm. […] Solutions of arginase I and II are prepared in 100 mM sodium phosphate buffer, pH 7.4 containing 1 mg/ml of OVA to give an arginase stock solution at a final concentration of 100 ng/ml.
(§2) To each well of a 96-well microtiter plate is add 40 μl of enzyme, 10 μl of an inventive compound and 10 μl of enzyme substrate (L-arginine+ manganese sulfate). For wells that are used as positive controls, only the enzyme and its substrate are added, while wells used as negative controls contain only manganese sulfate.
(§3) After incubating the microtiter plate at 37° C. for 60 minutes, 150 μl of a urea reagent obtained by combining equal proportions (1:1) of reagents A and B is added to each well of the microtiter plate to stop the reaction. The urea reagent is made just before use by combining Reagent A (10 mM o-phthaldialdehyde, and 0.4% polyoxyethylene (23) lauryl ether (w/v) in 1.8 M sulfuric acid) with Reagent B (1.3 mM primaquine diphosphate, 0.4% polyoxyethylene (23) lauryl ether (w/v), 130 mM boric acid in 3.6 M sulfuric acid). After quenching the reaction mixture, the microtiter plate is allowed to stand for an additional 10 minutes at room temperature to allow color development. […] The normalized OD is then used to generate a dose-response curve by plotting the normalized OD values against log [concentration] and using regression analysis to compute the IC50 values.
Method for human arginase I (ARG I): as §1, §2, §3

In the case of `NC(CCCCB(O)O)(C(=O)O)[C@H]1C[C@@H](NCC2CCN(c3ccc(C(=O)O)cc3)CC2)C1` (mixture of isomers) [Example 59, 4-(4-(((1R,3s)-3-((S)-1-amino-5-borono-1-carboxypentyl)cyclobutylamino)methyl)piperidin-1-yl)benzoic acid], the IC50 at arginase II (ARG II) and at human arginase I (ARG I) was 26 to 100 nM in each case.

`NC(CCCCB(O)O)(C(=O)O)[C@H]1C[C@H](N(Cc2ccccc2)Cc2ccccc2)C1` (relative stereo) [Example 28, (S)-2-amino-6-borono-2-((1r,3S)-3-(dibenzylamino)cyclobutyl)hexanoic acid]: the IC50 against arginase II (ARG II) and at human arginase I (ARG I) was > 1500 nM throughout.

Take `NC(CCCCB(O)O)(C(=O)O)[C@H]1C[C@@H](NCCCc2ccccc2)C1` (stereo partly drawn) [Example 1, (S)-2-amino-6-borono-2-((1s,3R)-3-(3-phenylpropylamino)cyclobutyl) hexanoic acid]: at arginase II (ARG II), the IC50 fell in the range of 26 to 100 nM.

Take `NC(CCCCB(O)O)(C(=O)O)[C@H]1C[C@@H](NCCCc2cc(F)cc(Cl)c2)C1` (stereo partly drawn) [Example 2, (S)-2-amino-6-borono-2-((1s,3R)-3-(3-(3-chloro-5-fluorophenyl)propylamino)cyclobutyl)hexanoic acid]: the IC50 against arginase II (ARG II) fell in the range of 0.1 to 25 nM; against human arginase I (ARG I), 26 to 100 nM.

With `NC(CCCCB(O)O)(C(=O)O)[C@H]1C[C@@H](NCCc2ccc(F)c(F)c2)C1` (stereo partly drawn) [Example 3, (S)-2-amino-6-borono-2-((1s,3R)-3-(3,4-difluorophenethylamino)cyclobutyl)hexanoic acid], the IC50 against arginase II (ARG II) and on human arginase I (ARG I) was 26 to 100 nM throughout.

Take `NC(CCCCB(O)O)(C(=O)O)[C@H]1C[C@@H](NCCc2ccc(Cl)cc2Cl)C1` (stereo partly drawn) [Example 4, (S)-2-amino-6-borono-2-((1s,3R)-3-(2,4-dichlorophenethylamino)cyclobutyl)hexanoic acid]: the IC50 against arginase II (ARG II) and at human arginase I (ARG I) was 26 to 100 nM in each case.

With `NC(CCCCB(O)O)(C(=O)O)[C@H]1C[C@@H](NCc2cccc(-c3ccccc3)c2)C1` (stereo partly drawn) [Example 7, (S)-2-amino-2-((1s,3R)-3-(biphenyl-3-ylmethylamino)cyclobutyl)-6-boronohexanoic acid], the IC50 against arginase II (ARG II) and at human arginase I (ARG I) was 26 to 100 nM in each case.

Consider `NC(CCCCB(O)O)(C(=O)O)[C@H]1C[C@@H](NC[C@@H]2Cc3ccccc3CN2)C1` (stereo partly drawn) [Example 14, (S)-2-amino-6-borono-2-((1R,3R)-3-(((S)-1,2,3,4-tetrahydroisoquinolin-3-yl)methylamino)cyclobutyl)hexanoic acid], for which the IC50 on arginase II (ARG II) and against human arginase I (ARG I) was 26 to 100 nM throughout.

As for `NC(CCCCB(O)O)(C(=O)O)[C@H]1C[C@@H](NCc2ccc(O)cc2)C1` (stereo partly drawn) [Example 20, (S)-2-amino-6-borono-2-((1s,3R)-3-(4-hydroxybenzylamino)cyclobutyl)hexanoic acid], the IC50 against arginase II (ARG II) and against human arginase I (ARG I) was 26 to 100 nM each time.

For the compound `NC(CCCCB(O)O)(C(=O)O)[C@H]1C[C@@H](N2Cc3ccccc3C2)C1` (stereo partly drawn) [Example 29, 2-amino-6-borono-2-((1s,3R)-3-(isoindolin-2-yl)cyclobutyl)hexanoic acid], the IC50 against arginase II (ARG II) and on human arginase I (ARG I) was 101 to 500 nM in each case.

Consider `CNC(CCCCB(O)O)(CCN1CCc2c(Cl)cccc2C1)C(=O)O` (stereo not shown) [Example 31, 6-borono-2-(2-(5-chloro-3,4-dihydroisoquinolin-2(1H)-yl)ethyl)-2-(methylamino)hexanoic acid], for which the IC50 on arginase II (ARG II) and against human arginase I (ARG I) was 101 to 500 nM throughout.

As for `CNC(CCCCB(O)O)(CCN1CCc2ccccc2C1)C(=O)O` (stereo not shown) [Example 32, 6-borono-2-(2-(3,4-dihydroisoquinolin-2(1H)-yl)ethyl)-2-(methylamino)hexanoic acid], the IC50 on arginase II (ARG II) and at human arginase I (ARG I) was 101 to 500 nM throughout.

`CNC(CCCCB(O)O)(CCN1CCC(C)(C)CC1)C(=O)O` (stereo not shown) [Example 34, 6-borono-2-(2-(4,4-dimethylpiperidin-1-yl)ethyl)-2-(methylamino)hexanoic acid]: the IC50 on arginase II (ARG II) and at human arginase I (ARG I) was 101 to 500 nM throughout.
